What all share (test): microbe, parasite or virus in culture
Format in all cases: cell-based

For test [1], the system named is HCV 1a RLuc cells (dicistronic genotype 1a H77 replicon, RLuc reporter). The note with it: Hepatitis C virus, genotype 1a replicon; read-out: 1a. In short, it runs like this: (§1)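 Renilla luciferase HCV replicon cells: dicistronic 1b Con1, 1a H77 or 2a JFH-1 replicons, or a JFH-1 chimera carrying J6 NS5A (M31 present). Compound in DMSO serial dilutions, 72 h incubation, then lysis and luciferase read. EC50 by non-linear regression.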
(Replicon systems follow genome replication, usually without infectious particles.)

In test [2] the test system is HCV 1b RLuc cells (dicistronic genotype 1b Con1 replicon, RLuc reporter). The note with it: Hepatitis C virus, read-out: 1b (nM). In short, it runs like this:
as §1

Test [3] relates to HCV 2a JFH-1 Rluc cells (dicistronic genotype 2a JFH-1 replicon, RLuc reporter). The following applies: Hepatitis C virus, genotype 2a JFH-1 replicon; read-out: 2a JFH. In a few lines: as §1
Test [4] relates to HCV 3a RLuc cells (NS5A chimeric genotype 1b Con1 replicon with consensus genotype 3a NS5A gene). The following applies: Hepatitis C virus, read-out: 3a, genotype 3a replicon. In short, it runs like this:
(§2)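 Replicon cells stably carrying the listed RLuc-encoding dicistronic replicons were seeded and treated with DMSO serial dilutions of compound (10 mM stocks) diluted into culture medium. After 72 h, cells were lysed and Renilla luciferase activity measured. EC50 was derived by non-linear regression.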

For test [5], the system named is HCV 4a Rluc cells (NS5A chimeric genotype 1b Con1 replicon with genotype 4a NS5A gene). The note with it: Hepatitis C virus, read-out: 4a. In short, it runs like this:
as §2

A value given as a limit tells only on which side of the number the result lay.

Turning to `COC(=O)N[C@H](C(=O)N1CCC[C@H]1c1nc2ccc3cc(-c4ccc5c(c4)CCc4nc([C@@H]6[C@H]7CC[C@H](C7)N6C(=O)[C@@H](NC(=O)OC)C(C)C)[nH]c4-5)ccc3c2[nH]1)C(C)C` [Example 290], the EC50 in test [1] was 0.001 to 0.999 nM; in test [2], 0.017 nM; in test [3], 0.001 to 0.999 nM; in test [4] it was 0.001 to 0.99 nM; in test [5], 0.001 to 0.99 nM.
Consider `COC(=O)N[C@H](C(=O)N1[C@@H]2CC[C@@H](C2)[C@H]1c1nc2c([nH]1)-c1ccc(-c3ccc4c(ccc5nc([C@@H]6CCCN6C(=O)[C@@H](NC(=O)OC)C6CCOCC6)[nH]c54)c3)cc1CC2)C(C)C` [Example 291], for which the EC50 was 0.001 to 0.999 nM in test [1]; 0.103 nM in test [2]; 0.001 to 0.999 nM in test [3]; 0.001 to 0.99 nM in test [4]; 0.001 to 0.99 nM in test [5].
For the molecule `COC(=O)N[C@H](C(=O)N1[C@@H]2CC[C@@H](C2)[C@H]1c1nc2c([nH]1)-c1ccc(-c3ccc4c(ccc5nc([C@@H]6CCCN6C(=O)[C@@H](NC(=O)OC)[C@@H](C)OC)[nH]c54)c3)cc1CC2)C(C)C` [Example 292], the EC50 in test [1] was 0.001 to 0.999 nM; in test [2] it was 0.059 nM; in test [3], 0.001 to 0.999 nM; in test [4] it was 0.001 to 0.99 nM; in test [5] it was 0.001 to 0.99 nM.
`COC(=O)N[C@H](C(=O)N1CCC[C@H]1c1ncc(-c2ccc3c4ccc(-c5cnc([C@@H]6CCCN6C(=O)[C@@H](NC(=O)OC)C6CCOCC6)[nH]5)cc4c4ccccc4c3c2)[nH]1)C(C)C` [Example 293]: the EC50 in test [1] was 0.001 to 0.999 nM; in test [2], 0.042 nM; in test [3], 0.001 to 0.999 nM; in test [4], 0.001 to 0.99 nM; in test [5], 0.001 to 0.99 nM.
Turning to `COC(=O)N[C@H](C(=O)N1CCC[C@H]1c1ncc(-c2ccc3c(c2)CCc2cc(-c4cnc([C@@H]5[C@H]6CC[C@H](C6)N5C(=O)[C@@H](c5ccccc5)N5CCOCC5)[nH]4)ccc2-3)[nH]1)C(C)C` [Example 295], the EC50 in test [1] is 1 to 44 nM; in test [2], 0.05 nM; in test [3], 0.001 to 0.999 nM; in test [4], 0.001 to 0.99 nM; in test [5], 0.001 to 0.99 nM.
As for `COC(=O)N[C@H](C(=O)N1CCC[C@H]1c1nc2ccc3cc(-c4ccc(-c5cnc([C@@H]6CC7(CN6C(=O)[C@H](NC(=O)OC)c6ccccc6)OCCO7)[nH]5)cc4)ccc3c2[nH]1)C(C)C` [Example 296], the EC50 in test [1] is 0.001 to 0.999 nM; in test [2], 0.063 nM; in test [3], 0.001 to 0.999 nM; in test [4] it was 0.001 to 0.99 nM; in test [5], 0.001 to 0.99 nM.
`COC(=O)N[C@H](C(=O)N1CCC[C@H]1c1nc2ccc3cc(-c4ccc(-c5cnc([C@@H]6CC7(CN6C(=O)[C@H](NC(=O)OC)c6ccccc6)OCCO7)[nH]5)cc4)ccc3c2[nH]1)C1CCOCC1` [Example 297]: the EC50 in test [1] is 0.001 to 0.999 nM; in test [2] it was 0.357 nM; in test [3] it was 0.001 to 0.999 nM; in test [4], 0.001 to 0.99 nM; in test [5] it was 0.001 to 0.99 nM.
With `COC(=O)N[C@H](C(=O)N1CCC[C@H]1c1ncc(-c2ccc(-c3ccc4c(c3)c3ccccc3c3nc([C@@H]5CCCN5C(=O)[C@@H](NC(=O)OC)C(C)C)[nH]c43)cc2)[nH]1)C(C)C` [Example 299], the EC50 in test [1] was 1 to 44 nM; in test [2] it was 0.017 nM; in test [3] it was 1 to 44 nM; in test [4] it was above 5 nM; in test [5], 0.001 to 0.99 nM.
On to `COC(=O)N[C@H](C(=O)N1CCC[C@H]1c1nc2c3ccccc3c3cc(-c4ccc(-c5cnc([C@@H]6CCCN6C(=O)[C@@H](NC(=O)OC)C6CCOCC6)[nH]5)cc4)ccc3c2[nH]1)C(C)C` [Example 300], for which the EC50 in test [1] was 1 to 44 nM; in test [2], 0.023 nM; in test [3], 0.001 to 0.999 nM; in test [4], 1 to 4.99 nM; in test [5], 0.001 to 0.99 nM.
As for `COC(=O)N[C@H](C(=O)N1CCC[C@H]1c1nc2c3ccccc3c3cc(-c4ccc(-c5cnc([C@@H]6CCCN6C(=O)[C@@H](NC(=O)OC)[C@@H](C)OC)[nH]5)cc4)ccc3c2[nH]1)C(C)C` [Example 301], the EC50 is 1 to 44 nM in test [1]; 0.019 nM in test [2]; 1 to 44 nM in test [3]; 1 to 4.99 nM in test [4]; 0.001 to 0.99 nM in test [5].
Take `COC(=O)N[C@H](C(=O)N1[C@@H]2CC[C@@H](C2)[C@H]1c1ncc(-c2ccc(-c3ccc4c(ccc5nc([C@@H]6CCCN6C(=O)[C@@H](NC(=O)OC)C6CCOCC6)[nH]c54)c3)cc2F)[nH]1)C(C)C` [Example 302]: the EC50 in test [1] is 0.001 to 0.999 nM; in test [2] it was 0.021 nM; in test [3], 0.001 to 0.999 nM; in test [4] it was 0.001 to 0.99 nM; in test [5], 0.001 to 0.99 nM.
`COC(=O)N[C@H](C(=O)N1CCC[C@H]1c1ncc(-c2ccc3c(ccc4cc(-c5cnc([C@@H]6[C@H]7CC[C@H](C7)N6C(=O)[C@@H](NC(=O)OC)C(C)C)[nH]5)ccc43)c2)[nH]1)C(C)C` [Example 303]: the EC50 in test [1] was 0.001 to 0.999 nM; in test [2], 0.008 nM; in test [3] it was 0.001 to 0.999 nM; in test [4] it was 0.001 to 0.99 nM; in test [5], 0.001 to 0.99 nM.
On to `COC(=O)N[C@H](C(=O)N1CCC[C@H]1c1nc2ccc3cc(-c4ccc(-c5cnc([C@@H]6[C@H]7CC[C@H](C7)N6C(=O)[C@@H](NC(=O)OC)C6CCOCC6)[nH]5)c(F)c4)ccc3c2[nH]1)C(C)C` [Example 305], for which the EC50 in test [1] was 0.001 to 0.999 nM; in test [2], 0.017 nM; in test [3] it was 0.001 to 0.999 nM; in test [4] it was 0.001 to 0.99 nM; in test [5] it was 0.001 to 0.99 nM.
`COC(=O)N[C@H](C(=O)N1CCC[C@H]1c1ncc(-c2cc3c4c(c2)OCc2cc(-c5cnc([C@@H]6CCCN6C(=O)C(c6ccccc6)N(C)C)[nH]5)cc(c2-4)OC3)[nH]1)C(C)C` (some centres unmarked) [Example 307]: the EC50 was 0.001 to 0.999 nM in test [1]; 0.091 nM in test [2]; 0.001 to 0.999 nM in test [3]; 0.001 to 0.99 nM in test [4]; 0.001 to 0.99 nM in test [5].
For the molecule `COC(=O)N[C@H](C(=O)N1CCC[C@H]1c1ncc(-c2ccc3c(c2)COc2c-3ccc(-c3cnc([C@@H]4CCCN4C(=O)[C@@H](NC(=O)OC)C(C)C)[nH]3)c2F)[nH]1)C(C)C` [Example 308], the EC50 in test [1] was 0.001 to 0.999 nM; in test [2], 0.008 nM; in test [3], 0.001 to 0.999 nM; in test [4] it was 0.001 to 0.99 nM; in test [5], 0.001 to 0.99 nM.
As for `COC(=O)N[C@H](C(=O)N1CCC[C@H]1c1ncc(-c2ccc3c4ccc(-c5cnc([C@@H]6CCCN6C(=O)[C@@H](NC(=O)OC)C6CCOCC6)[nH]5)cc4c4ccccc4c3c2)[nH]1)C1CCOCC1` [Example 309], the EC50 in test [1] is 0.001 to 0.999 nM; in test [2] it was 0.219 nM; in test [3] it was 0.001 to 0.999 nM; in test [4], 0.001 to 0.99 nM; in test [5] it was 0.001 to 0.99 nM.
Regarding `COC(=O)N[C@H](C(=O)N1CCC[C@H]1c1ncc(-c2ccc3c4ccc(-c5cnc([C@@H]6CCCN6C(=O)[C@@H](NC(=O)OC)[C@@H](C)OC)[nH]5)cc4c4ccccc4c3c2)[nH]1)[C@@H](C)OC` [Example 310], the EC50 is 0.001 to 0.999 nM in test [1]; 0.041 nM in test [2]; 0.001 to 0.999 nM in test [3]; 0.001 to 0.99 nM in test [4]; 0.001 to 0.99 nM in test [5].
Take `COC(=O)N[C@H](C(=O)N1CCC[C@H]1c1ncc(-c2ccc3c4ccc(-c5cnc([C@@H]6CCCN6C(=O)[C@@H](NC(=O)OC)[C@@H](C)OC)[nH]5)cc4c4ccccc4c3c2)[nH]1)C(C)C` [Example 311]: the EC50 is 0.001 to 0.999 nM in test [1]; 0.025 nM in test [2]; 0.001 to 0.999 nM in test [3]; 0.001 to 0.99 nM in test [4]; 0.001 to 0.99 nM in test [5].
Consider `COC(=O)N[C@H](C(=O)N1[C@@H]2CC[C@@H](C2)[C@H]1c1ncc(-c2ccc(-c3ccc4c(ccc5nc([C@@H]6CCCN6C(=O)[C@H](NC(=O)OC)c6ccccc6)[nH]c54)c3)cc2F)[nH]1)C(C)C` [Example 312], for which the EC50 was 1 to 44 nM in test [1]; 0.011 nM in test [2]; 0.001 to 0.999 nM in test [3]; 0.001 to 0.99 nM in test [4]; 0.001 to 0.99 nM in test [5].
Turning to `COC(=O)N[C@H](C(=O)N1CCC[C@H]1c1ncc(-c2cc3c4c(c2)OCc2cc(-c5cnc([C@@H]6CCCN6C(=O)[C@@H](NC(=O)OC)[C@@H](C)OC)[nH]5)cc(c2-4)OC3)[nH]1)C(C)C` [Example 313], the EC50 is 0.001 to 0.999 nM in test [1]; 0.079 nM in test [2]; 0.001 to 0.999 nM in test [3]; 0.001 to 0.99 nM in test [4]; 0.001 to 0.99 nM in test [5].
Take `COC(=O)N[C@H](C(=O)N1CCS[C@H]1c1nc2ccc3cc(-c4ccc(-c5cnc([C@@H]6CCCN6C(=O)[C@@H](NC(=O)OC)C6CCOCC6)[nH]5)cc4)ccc3c2[nH]1)C(C)C` [Example 316]: the EC50 in test [1] is 0.001 to 0.999 nM; in test [2], 0.242 nM; in test [3], 0.001 to 0.999 nM; in test [4], 0.001 to 0.99 nM; in test [5], 0.001 to 0.99 nM.
As for `COC(=O)N[C@H](C(=O)N1[C@@H]2C[C@@H]2C[C@H]1c1nc2ccc3cc(-c4ccc(-c5cnc([C@@H]6[C@H]7CC[C@H](C7)N6C(=O)[C@@H](NC(=O)OC)C6CCOCC6)[nH]5)c(F)c4)ccc3c2[nH]1)C(C)C` [Example 320], the EC50 is 0.001 to 0.999 nM in test [1]; 0.01 nM in test [2]; 0.001 to 0.999 nM in test [3]; 0.001 to 0.99 nM in test [4]; 0.001 to 0.99 nM in test [5].

Values taken from patent US10344019B2 (priority 2010, dated 2019).
